Test results as given in patent publication EP0857779A1, “PROCESS FOR THE BIODEGRADATION OF AROMATIC COMPOUNDS AND SYNTHESIS OF PIGMENTS AND COLORANTS, ALCALOIDS AND POLYMERS, WITH THE USE OF THE R[…] ESCHERICHIA COLI P260” (priority 1996, dated 1998).

Key:
[1] = biological target: T1, 4-HPA hydroxylase of K. pneumoniae (Klebsiella oxytoca, UniProt Q48440); experiment: Hidroxylase activity expressed by E. coli P260 on different aromatic compounds; type: biochemical; parameters: concentration or dose not given beside the values; conditions: compound as organic substrate of the enzyme expressed by E. coli P260
T1 construct: expressed in transfected cells; host or cells: E. coli CC118 (K-12) transformed with pG260 = E. coli P260 (CECT 4627)
Description: (§1) By means of hydroxylation, this enzyme transforms 3-HPA and 4-HPA into 3,4-DHPA which, after the subdequent action of a dioxygenase, loses its aromaticity. For the isolation of these genes, the chromosomic DNA of K. pneumoniae was isolated and digested with the restriction enzyme Bam Hl. As a cloning vector the plasmid pUC18Not was chosen (Herrero et al., 1990; J. Bacteriol. 72:6557-67), digested with BamHl and dephosphorilated. Bonding mixtures were used in the transformation of the mutant strain W-21 of E. coli (Lacrec A), a mutant deficient in the 4-HPA hydroxylase enzyme. The transformants were select on plates that contained ampicillin (100 µg/ml), IPTG and X-Gal and subsequently on selected media with Ampicillin and 4-HPA as the sole source of carbon and energy. A recombinant plasmid complemented the 4-HPA mutation of E. coli W-21 and treating this transformant with acridin orange caused reversion to the mutant phenotype (due to loss of plasmids). […] Synthesis of the enzyme was checked by determining enzymatic activity in "standard" conditions, by means of a spectrophotometric test (Martin et al., 1991; J. Gen. Microbiol. 132: 621-628). In this way it was established that the enzyme synthesized constitutively in the strains of E. coli derived from K-12 (strains incapable of metabolizing 4-HPA because they lack all the genes of the degradative route), unlike what occurs in K. pneumoniae M5a1 or E. coli W, where synthesis of the enzyme is inducible by 3-HPA and/or 4-HPA. The E. coli K-12 (E. coli CC118) strains, transformed by the recombinant plasmid, were called E. coli P260. […]
The E. coli P260 cultures produced a blackish brown pigmentation in LB or BHI as a consequence of the expression of the cloned genes. […] To investigate this hypothesis, several aromatic compounds were analyzed, different from 3-HPA and 4-HPA, as possible substrates of the enzyme (Table 2).

E. coli W-P260 strain = experiment: Biodegradation (mineralization) of the aromatic compound by a growing culture, 14C-CO2 trapping and HPLC; type: cell-based; conditions: minimum PJC medium with glycerol and 4-HPA 2.5 mM, 30°C, 200 rpm
Procedure: In a test experiment, the following procedure was carried out: the E. coli W-P260 strain (obtained by transformation of the E. coli W-21 strain, mutant in hpa genes) was grown in a minimum PJC medium supplemented with glycerol and 4-HPA 2.5 mM (10% of which was marked with ^14C in the aromatic ring). Incubation was carried out at 30°C and with stirring (200 rpm). In order to quantify the biotransformation of the aromatic ring, the CO2 formed during the process was collected on NaOH 1N located in the lid of the matrass so that it would act as a trapping agent. Samples were taken at different times (Figure 3) so as to evaluate the formation of biomass (DO 680), release of CO2 (cpm) and the disappearance of 4 HPA (measurement of concentration by HPLC). In Figure 3 it may be observed how the mineralization capacity of the E. coli W-P260 strain achieves mineralization of the aromatic compound in 12 hours.

4-HPA hidroxylase = experiment: 4-HPA hydroxylase activity of strains, spectrophotometric test in standard conditions; type: biochemical, K. pneumoniae
Description: as §1

T1 sequence (Q48440 whole entry): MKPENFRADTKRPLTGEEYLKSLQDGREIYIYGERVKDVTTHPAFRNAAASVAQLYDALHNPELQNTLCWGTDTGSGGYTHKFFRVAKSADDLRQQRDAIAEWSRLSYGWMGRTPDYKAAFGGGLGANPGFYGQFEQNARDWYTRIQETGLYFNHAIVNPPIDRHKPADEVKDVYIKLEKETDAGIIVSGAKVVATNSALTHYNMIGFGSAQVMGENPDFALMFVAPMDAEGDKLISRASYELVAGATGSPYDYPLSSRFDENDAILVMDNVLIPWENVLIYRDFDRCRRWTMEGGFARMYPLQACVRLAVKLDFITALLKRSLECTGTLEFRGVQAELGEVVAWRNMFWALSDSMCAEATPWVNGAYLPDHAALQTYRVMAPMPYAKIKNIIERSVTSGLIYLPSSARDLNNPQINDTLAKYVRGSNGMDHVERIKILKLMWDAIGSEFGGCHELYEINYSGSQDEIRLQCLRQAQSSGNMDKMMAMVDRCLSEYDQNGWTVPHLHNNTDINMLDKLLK

Row | SMILES | % ACTIVITY [1] | further results
1 | N[C@@H](Cc1ccc(O)c(O)c1)C(=O)O (racemic) [L-Dopa, DL-Dihydroxyphenylalanin] | 10% | 
2 | N[C@@H](Cc1ccc(O)cc1)C(=O)O [L-Tyr, L-Tyrosine] | 8% | 
3 | O=C(O)c1ccc(O)c(O)c1 [3,4-DHBA, 3,4-Dihydroxybenzoate] | 30% | 
4 | O=C(O)c1ccc(O)cc1 [4-HBA, 4-Hydroxybenzoate] | 15% | 
5 | O=C(O)Cc1ccc(O)cc1 [4-HPA, 4-hydroxyphenylacetate] | 100% | mineralization of the aromatic compound (E. coli W-P260 strain): 12 h
6 | Oc1ccccc1O [Catecol] | 30% | 
7 | O=C(O)Cc1ccc(O)c(O)c1 [3,4-DHPA, 3,4-dihydroxyphenylacetate] | 50% | 
8 | O=C(O)Cc1ccccc1 [PA, Phenylacetic acid] | < 5% | 
9 | O=C(O)Cc1ccccc1O [2-HPA, 2-Hydroxyphenylacetate] | < 5% | 
10 | O=C(O)Cc1cccc(O)c1 [3-HPA] | 100% | 4-HPA hidroxylase (4-HPA hidroxylase; strain E. coli CC118, substrate growth Gly/4-HPA): <1; 4-HPA hidroxylase (4-HPA hidroxylase; strain E. coli P260, substrate growth Gly/4-HPA/Ap): 50±6; 4-HPA hidroxylase (4-HPA hidroxylase; strain E. coli P260, substrate growth LB/Ap): 57±9; 4-HPA hidroxylase (4-HPA hidroxylase; strain E. coli W-21 (plasmid), substrate growth Gly/4-HPA/Ap): 28±5; 4-HPA hidroxylase (4-HPA hidroxylase; strain E. coli W-21 (plasmid), substrate growth LB/Ap): <5; 4-HPA hidroxylase (4-HPA hidroxylase; strain E. coli W-21, substrate growth Gly/4-HPA): <1; 4-HPA hidroxylase (4-HPA hidroxylase; strain K. pneumoniae M5a1, substrate growth 4-HPA): 26±9; 4-HPA hidroxylase (4-HPA hidroxylase; strain K. pneumoniae M5a1, substrate growth LB): <1
